Experimental data taken from US20260062422A1 (Halda Therapeutics OpCo, Inc., priority 2022, published 2026).
pKd: −log10 of the molar value.

Columns and labels:
[1] = biological target: T1, BRD4-BD1 (Homo sapiens, UniProt O60885); assay: bromoKdELECT assay for binding affinity to BRD4-BD1; details: Table 6
T1 construct: made in house; host or cells: T7 phage grown in an E. coli host derived from BL21
Description: Compounds were tested using a bromoKdELECT assay. T7 phage strains displaying bromodomains were grown in parallel in 24-well blocks in an E. coli host derived from the BL21 strain. E. coli were grown to log-phase and infected with T7 phage from a frozen stock (multiplicity of infection=0.4) and incubated with shaking at 32° C. until lysis (90-150 minutes). The lysates were centrifuged (5,000×g) and filtered (0.2 μm) to remove cell debris. Streptavidin-coated magnetic beads were treated with biotinylated small molecule or acetylated peptide ligands for 30 minutes at room temperature to generate affinity resins for bromodomain assays. The liganded beads were blocked with excess biotin and washed with blocking buffer (SeaBlock (Pierce), 1% BSA, 0.05% Tween 20, 1 mM DTT) to remove unbound ligand and to reduce nonspecific phage binding. Binding reactions were assembled by combining bromodomains, liganded affinity beads, and test compounds in 1× binding buffer (17% SeaBlock, 0.33×PBS, 0.04% Tween 20, 0.02% BSA, 0.004% Sodium azide, 7.4 mM DTT). Test compounds were prepared as 1000× stocks in 100% DMSO. Kds were determined using an 11-point 3-fold compound dilution series with one DMSO control point. All compounds for Kd measurements are distributed by acoustic transfer (non-contact dispensing) in 100% DMSO. The compounds were then diluted directly into the assays such that the final concentration of DMSO was 0.09%. All reactions performed in polypropylene 384-well plates. Each was a final volume of 0.02 ml. The assay plates were incubated at room temperature with shaking for 1 hour and the affinity beads were washed with wash buffer (1×PBS, 0.05% Tween 20). The beads were then resuspended in elution buffer (1×PBS, 0.05% Tween […] non-biotinylated affinity ligand) and incubated at room temperature with shaking for 30 minutes. The bromodomain concentration in the eluates was measured by qPCR.

[2] = system: T47D cells; assay: Cellular growth inhibition assay for T47D cells, CellTiter-Glo; type: cell-based, human; details: Homo sapiens, T47D, 72 h, 72 hours treatment, CellTiter-Glo 2.0 cell viability
Outline: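 Cells are plated at 3000/well and allowed 24 h before treatment. Test compound in medium containing 0.5% DMSO is then added, with DMSO-only wells as negative control, and plates are incubated 72 h at 37 °C. ATP luminescence (CellTiter-Glo 2.0) is then fitted to four parameters to derive GI50.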

[3] = system: T-Rex 293 cell line SC cells lacking increased expression of progesterone receptor isoform B protein; assay: Cellular growth inhibition, T-Rex 293 SC cells without doxycycline, Example 45; type: cell-based; details: T-Rex 293 SC cells not exposed to doxycycline, 72 hours treatment, CellTiter-Glo 2.0
Description: (§1) The following types of cells were prepared for this experiment: (i) a T-Rex 293 cell line having increased expression of progesterone receptor isoform B protein due to exposure to doxycycline and (ii) a T-Rex 293 cell line lacking increased expression of progesterone receptor isoform B protein. Ability of the test compounds to inhibit proliferation of the foregoing cell types was evaluated according to the procedures set forth below.
(§2) The doxycycline-inducible progesterone receptor isoform B protein expressing cell line was established using the following protocol: T-Rex 293 cells were purchased from Invitrogen (Cat #R71007) and transfected using Lipofectamine 2000 with the wild-type progesterone receptor B protein sequence cloned into the pcDNA4/TO vector. Transfected cells were selected using 400 μg/mL Zeocin (Invitrogen Cat #R25001). Following selection, single clones were raised and maintained in Dulbecco's Modified Eagle Medium (DMEM) supplemented with 10% w/w Tetracycline-free fetal bovine serum (FBS) and 250 μg/mL Zeocin. Clones were analyzed for expression of progesterone receptor isoform B protein in the presence and absence of 10 ng/mL doxycycline (Sigma Cat #D9891), and a single doxycycline-inducible clone (hereinafter “SC”) was selected for use in downstream assays.
(§3) The SC cells were seeded on poly-D-lysine coated, black clear-bottom 384-well plates at 2500/well, in 25 μL Phenol Red Free Dulbecco's Modified Eagle Medium (DMEM) supplemented with 10% w/w charcoal-dextran treated fetal bovine serum (FBS) and 1% w/w pen-strep, with or without 10 ng/mL doxycycline. Pen-Strep is a commercially available mixture of penicillin G and streptomycin, which is used in mammalian cell culture media to prevent bacterial contamination. Phenol Red Free Dulbecco's Modified Eagle Medium (DMEM) supplemented with 10% w/w charcoal-dextran treated fetal bovine serum (FBS) and 1% w/w pen-strep, with or without 10 ng/mL doxycycline is herein referred to as Treatment Medium. Following seeding of cells in the plates, the plates were spun at 300×g for 30 seconds, then equilibrated to room temperature for 30 minutes, and then deposited in a humidified tissue culture incubator maintained at 37° C. with 5% CO2.
(§4) At 24 hours after seeding of the cells, dilutions of test compound were prepared in DMSO and dissolved in Treatment Medium, to achieve a final DMSO concentration of 0.5% w/w, thereby providing the Test Compound Solution. A 25 μL aliquot of the Test Compound Solution was added to cells in the well plates. An equal volume of a solution containing DMSO and Treatment Medium was used as a negative control. Following treatment of cells with Test Compound Solution or said equal volume of a solution containing DMSO and Treatment Medium, the plates were spun at 300×g for 30 seconds, and then left in an incubator for 72 hours.
(§5) At the end of the treatment duration, cell viability was quantified with CellTiter-Glo 2.0 reagent (Promega Cat #G9243). For this purpose, plates were equilibrated to room temperature for 30 minutes, and then 25 μL of CellTiter-Glo 2.0 reagent was added to cells in the plate wells. Plates were then agitated on a shaker for two minutes at 500 rpm and subsequently incubated at room temperature for 10 minutes. Following incubation, the plates were spun at 3000×g for 30 seconds, then sealed with an optical adhesive cover, and luminescence readings were measured with an EnVision Plate Reader (Perkin Elmer).
(§6) Data was normalized using zero luminescence for baseline. A four-parameter non-linear regression curve fit was applied to dose-response data in GraphPad Prism data analysis software to determine the half-maximal growth inhibitory concentration (GI50) for each test compound.

[4] = Cellular growth inhibition, T-Rex 293 SC cells with doxycycline (progesterone receptor isoform B induced), Example 45; type: cell-based; details: progesterone receptor isoform B induced with 10 ng/mL doxycycline, 72 hours, CellTiter-Glo 2.0, Table 11
Description: as §1, §2, §3, §4, §5, §6

In the case of CCNC(=O)C[C@@H]1N=C(c2ccc(OCC3CN(c4ncc(C(=O)N[C@H]5C(C)(C)[C@H](Oc6ccc(C#N)c(Cl)c6)C5(C)C)cn4)C3)cc2)c2c(sc(C)c2C)-n2c(C)nnc21 [Compound I-71], the pKd [1] was 6.30 to 7.30 and the GI50 [2] was < 500 nM.
In the case of CCNC(=O)C[C@@H]1N=C(c2ccc(N(C)CC3CN(c4ncc(C(=O)N[C@H]5C(C)(C)[C@H](Oc6ccc(C#N)c(Cl)c6)C5(C)C)cn4)C3)cc2)c2c(sc(C)c2C)-n2c(C)nnc21 [Compound I-107], the pKd [1] was 6.30 to 7.30 and the GI50 [2] was 500 to 1500 nM.
In the case of CCN(C)C(=O)C[C@@H]1N=C(c2ccc(CCCOC3CCN(c4ncc(C(=O)N[C@H]5C(C)(C)[C@H](Oc6ccc(C#N)c(Cl)c6)C5(C)C)cn4)CC3)cc2)c2c(sc(C)c2C)-n2c(C)nnc21 [Compound I-101], the pKd [1] was < 5.60 and the GI50 [2] was 500 to 1500 nM.
For CCNC(=O)C[C@@H]1N=C(c2ccc(N(C)C3CN(CC4CCN(c5ncc(C(=O)N[C@H]6C(C)(C)[C@H](Oc7ccc(C#N)c(Cl)c7)C6(C)C)cn5)CC4)C3)cc2)c2c(sc(C)c2C)-n2c(C)nnc21 [Compound I-119], the pKd [1] was 6.30 to 7.30 and the GI50 [2] was < 500 nM.
CCNC(=O)C[C@@H]1N=C(c2ccc(N3CCC(OC4CCN(c5ncc(C(=O)N[C@H]6C(C)(C)[C@H](Oc7ccc(C#N)c(Cl)c7)C6(C)C)cn5)CC4)CC3)cc2)c2c(sc(C)c2C)-n2c(C)nnc21 [Compound I-114] showed a pKd [1] of 6.30 to 7.30.
With Cc1sc2c(c1C)C(c1ccc(CCCOC3CCN(c4ncc(C(=O)N[C@H]5C(C)(C)[C@H](Oc6ccc(C#N)c(Cl)c6)C5(C)C)cn4)CC3)cc1)=N[C@@H](CC(=O)NC(C)C)c1nnc(C)n1-2 [Compound I-100] the pKd [1] was < 5.60 and the GI50 [2] was 500 to 1500 nM.
In the case of Cc1sc2c(c1C)C(c1ccc(Cl)cc1)=N[C@H](CC(=O)NCCOCCOCCOCCOC1CCN(c3ncc(C(=O)N[C@H]4C(C)(C)[C@H](Oc5ccc(C#N)c(Cl)c5)C4(C)C)cn3)CC1)c1nnc(C)n1-2 [Compound I-13], the pKd [1] was < 5.60.
Compound CCNC(=O)C[C@@H]1N=C(c2ccc(OCCOC3CCN(c4ncc(C(=O)N[C@H]5C(C)(C)[C@H](Oc6ccc(C#N)c(Cl)c6)C5(C)C)cn4)CC3)c(F)c2)c2c(sc(C)c2C)-n2c(C)nnc21 [Compound I-76] has a pKd [1] of 5.60 to 6.30 and a GI50 [2] of 500 to 1500 nM.
With CCNC(=O)C[C@@H]1N=C(c2ccc(N3CCC(N(C)C4CCN(c5ncc(C(=O)N[C@H]6C(C)(C)[C@H](Oc7ccc(C#N)c(Cl)c7)C6(C)C)cn5)CC4)CC3)cc2)c2c(sc(C)c2C)-n2c(C)nnc21 [Compound I-113] the pKd [1] was > 7.30.
In the case of Cc1sc2c(c1C)C(c1ccc(Cl)cc1)=N[C@@H](CC(=O)NCCN(C)c1ncc(C(=O)N[C@H]3C(C)(C)[C@H](Oc4ccc(C#N)c(Cl)c4)C3(C)C)cn1)c1nnc(C)n1-2 [Compound I-1, N-[3-(3-chloro-4-cyano-phenoxy)-2,2,4,4-tetramethyl-cyclobutyl]-2-[2-[[2-[(9S)-7-(4-chlorophenyl)-4,5,13-trimethyl-3-thia-1,8,11,12-tetrazatricyclo[8.3.0.02,6]trideca-2(6),4,7,10,12-pentaen-9-yl]acetyl]amino]ethyl-methyl-amino]pyrimidine-5-carboxamide], the pKd [1] was 6.30 to 7.30 and the GI50 [2] was < 500 nM.
Work on Cc1sc2c(c1C)C(c1ccc(Cl)cc1)=N[C@@H](CC(=O)NCCOCCOCCOCC1CN(c3ncc(C(=O)N[C@H]4C(C)(C)[C@H](Oc5ccc(C#N)c(Cl)c5)C4(C)C)cn3)C1)c1nnc(C)n1-2 [Compound I-18] yielded a pKd [1] of 6.30 to 7.30.
Cc1sc2c(c1C)C(c1ccc(Cl)cc1)=N[C@@H](CC(=O)NCCCCOCCOC1CCN(c3ncc(C(=O)N[C@H]4C(C)(C)[C@H](Oc5ccc(C#N)c(Cl)c5)C4(C)C)cn3)CC1)c1nnc(C)n1-2 [Compound I-28] gave a pKd [1] of 5.60 to 6.30.
In the case of Cc1sc2c(c1C)C(c1ccc(Cl)cc1)=N[C@@H](CC(=O)NCCCN1CCN(CC3CCN(c4ncc(C(=O)N[C@H]5C(C)(C)[C@H](Oc6ccc(C#N)c(Cl)c6)C5(C)C)cn4)CC3)CC1)c1nnc(C)n1-2 [Compound I-36, N-((1r,3r)-3-(3-chloro-4-cyanophenoxy)-2,2,4,4-tetramethylcyclobutyl)-2-(4-((4-(3-(2-((S)-4-(4-chlorophenyl)-2,3,9-trimethyl-6H-thieno[3,2-f][1,2,4]triazolo[4,3-a][1,4]diazepin-6-yl)acetamido)propyl)piperazin-1-yl)methyl)piperidin-1-yl)pyrimidine-5-carboxamide], the pKd [1] was 6.30 to 7.30 and the GI50 [2] was < 500 nM.
In the case of CCNC(=O)C[C@@H]1N=C(c2ccc(CCCC3CCN(c4ncc(C(=O)N[C@H]5C(C)(C)[C@H](Oc6ccc(C#N)c(Cl)c6)C5(C)C)cn4)CC3)cc2)c2c(sc(C)c2C)-n2c(C)nnc21 [Compound I-95], the pKd [1] was < 5.60 and the GI50 [2] was < 500 nM.
With Cc1sc2c(c1C)C(c1ccc(Cl)cc1)=N[C@@H](CC(=O)NCCCCCCCOC1CCN(c3ncc(C(=O)N[C@H]4C(C)(C)[C@H](Oc5ccc(C#N)c(Cl)c5)C4(C)C)cn3)CC1)c1nnc(C)n1-2 [Compound I-24] the pKd [1] was < 5.60.
For Cc1sc2c(c1C)C(c1ccc(Cl)cc1)=N[C@H](CC(=O)NCCOCCOCCOCCOCCN(C)c1ncc(C(=O)N[C@H]3C(C)(C)[C@H](Oc4ccc(C#N)c(Cl)c4)C3(C)C)cn1)c1nnc(C)n1-2 [Compound I-19], the pKd [1] was < 5.60.
Work on Cc1sc2c(c1C)C(c1ccc(Cl)cc1)=N[C@@H](CC(=O)NCCOCCOCCOCC1CCN(c3ncc(C(=O)N[C@H]4C(C)(C)[C@H](Oc5ccc(C#N)c(Cl)c5)C4(C)C)cn3)CC1)c1nnc(C)n1-2 [Compound I-17] yielded a pKd [1] of 6.30 to 7.30.
With Cc1sc2c(c1C)C(c1ccc(Cl)cc1)=N[C@@H](CC(=O)NCCOCCOCCOCCOC1CCN(c3ncc(C(=O)N[C@H]4C(C)(C)[C@H](Oc5ccc(C#N)c(Cl)c5)C4(C)C)cn3)CC1)c1nnc(C)n1-2 [Compound I-11] the pKd [1] was 5.60 to 6.30.
In the case of Cc1sc2c(c1C)C(c1ccc(Cl)cc1)=N[C@@H](CC(=O)NCCCN1CCN(CCCOC3CCN(c4ncc(C(=O)N[C@H]5C(C)(C)[C@H](Oc6ccc(C#N)c(Cl)c6)C5(C)C)cn4)CC3)CC1)c1nnc(C)n1-2 [Compound I-10], the pKd [1] was 6.30 to 7.30.
For Cc1sc2c(c1C)C(c1ccc(C[C@H]3C[C@@H]([C@@H]4CCCN(c5ncc(C(=O)N[C@H]6C(C)(C)[C@H](Oc7ccc(C#N)c(Cl)c7)C6(C)C)cn5)C4)C3)cc1)=N[C@@H](Cc1ncco1)c1nnc(C)n1-2 [Compound I-161], the GI50 [3] was > 3000 nM, the GI50 [4] was < 500 nM and the GI50 [2] was < 500 nM.
